The GI50 is the concentration that inhibits growth by half.

For test [1], the system named is T47D mammary cancer cells. Description: DNA synthesis by [3H]-thymidine incorporation, T47D cells. Particulars: Homo sapiens. The class given is cell-based, human. On the procedure:
(§1) Cells were cultured in MEM supplemented with 10% FCS and antibiotics. Cells were grown to subconfluence and then treated with various hormones or agents as described by Somjen et al. (Somjen et al., 1998). The cells were characterized in terms of expression of mRNAs for estrogen […] by real time PCR, and the results are summarized in Table 1. N87, 320DM and H295R cells expressed mRNAs for both ERs. The ratio of ERα to ERβ was 1:8.5, 1:30 and 1:1.8 in N87, 320DM and H295R cells, respectively. Ovarian A2780 and prostate C4-24 cells expressed mainly mRNA for ERβ, and the ratio of ERβ to ERα was 300:1 and 70:1, respectively. MLS ovarian cells expressed mRNA only for ERβ. The ratio of ERα to ERβ in T47D cells has been reported to be 9:1.
(§2) [^3H]-Thymidine incorporation into DNA was used for the assessment of the various effects (proliferative or inhibitory) of various isoflavones, isoflavone derivatives and known cytotoxic drugs in the above-mentioned cells. Cells were grown until subconfluence using conditions described in Somjen et al. (Somjen et al., 1998) and then treated with various agents for 24 or 48 h as indicated. At the end of incubation, [^3H]-thymidine was added for two hours. Cells were then treated with 10% ice-cold trichloroacetic (TCA) for 5 min and washed twice with 5% TCA and then with cold ethanol. The cellular layer was dissolved in 0.3 ml of 0.3 M NaOH, aliquots were taken for counting radioactivity, and [^3H]-thymidine incorporation into DNA was calculated.

The subject of test [2] is human prostate C4-2B cancer cells. Nature of the test: DNA synthesis by [3H]-thymidine incorporation, C4-2B cells. The class given is cell-based. On the procedure: as §1, §2
(In general: Incorporation of labelled thymidine or its analogues reports DNA synthesis.)

For test [3], the system named is T-47D breast cancer cell line. Description: NCI In Vitro Cell Line Screening, T-47D. The class given is cell-based. Particulars: Homo sapiens, T47D, read-out: log10 GI50 (converted). On the procedure: (§3) An in vitro cell line screen for the t-boc derivative of daidzein (compound 9) was performed at the NCI/NIH US utilizing the In Vitro Cell Line Screening Project (IVCLSP) (National Cancer Institute, Developmental Therapeutics Program, Information Technology Branch, Rockville, Md., USA).
(§4) The operation of this screen utilized 60 different human tumor cell lines, representing leukemia, melanoma and cancers of the lung, colon, brain, ovary, breast, prostate, and kidney. […] Using these algorithms, it is possible to assign a putative mechanism of action to a test compound, or to determine that the response pattern is unique and not similar to that of any of the standard prototype compounds included in the NCI database.
(§5) To facilitate analysis of the data, three endpoints were calculated for each cell line: The GI50 value, which is the negative log10 of the concentration required to inhibit the growth of that cell line by 50% (relative to untreated cells); TGI, the negative log10 of minimum concentration that causes total growth inhibition; and LC50, which reflects the negative log10 concentration needed to kill 50% of the cells. A Mean Graph was used as a way of easily visualizing the results from all 60 cell lines at once. To generate this graph, the mean of GI50 values across all 60 cell lines was calculated. […]

The subject of test [4] is EKVX non small lung cancer cell line. Nature of the test: NCI In Vitro Cell Line Screening, EKVX. Format: cell-based. As to conditions: Homo sapiens, read-out: log10 GI50 (converted). On the procedure: as §3, §4, §5
Test [5] concerns H295R adrenocarcinoma cells. Nature of the test: DNA synthesis by [3H]-thymidine incorporation, H295R cells. Format: cell-based, human. On the procedure:
as §1, §2

The next test relates to K-562 leukemia cell line. Nature of the test: NCI In Vitro Cell Line Screening, K-562. The class given is cell-based. Particulars: Homo sapiens, K562, read-out: log10 GI50 (converted). On the procedure:
as §3, §4, §5

For test [6], the system named is OVCAR-4 ovarian cancer cell line. Description: NCI In Vitro Cell Line Screening, OVCAR-4. The class given is cell-based. As to conditions: Homo sapiens, read-out: log10 GI50 (converted). The procedure: as §3, §4, §5

Regarding `CC(C)(C)OC(=O)NCCCCCCNC(=O)COc1ccc2c(=O)c(-c3ccc(O)cc3)coc2c1` [Compound 9], the inhibition at 10 µM in test [1] is 24 to 40%. This compound also came in with an inhibition at 0.03 µM in test [2] (Homo sapiens, at 30 nM) of 30%. The inhibition at 0.3 µM in test [2] (Homo sapiens, at 300 nM) is roughly 50%. Also, the “DNA synthesis, ratio experimental/control (E/C)” value in test [2] (compound at 0.3 μM) is listed as 0.28 ± 0.2; in test [5] (compound at 3 μM), 0.08 ± 0.21. For the same compound, the GI50 in test [3] is 1.35 µM; in test [4], 1.95 µM; in the test with K-562 leukemia cell line it was 0.646 µM; in test [6], 0.407 µM. The inhibition at 3 µM in test [5] (Homo sapiens, NCI-H295R, at 3 μM, read-out: inhibition of DNA synthesis / growth) came to 92%.

The values are drawn from patent US8338624B2, “Isoflavone derivatives and uses thereof” (Yeda Research and Development Co., Ltd., priority 2007, dated 2012).
